Data on two molecules can be found in ChEMBL document CHEMBL4152253, “New developments in non-quinolone-based antibiotics for the inhibiton of bacterial gyrase and topoisomerase IV” (Eur J Med Chem, 2018).

The target in one experiment is DNA gyrase (Staphylococcus aureus, UniProt P0A0K8+P20831). Put plainly: Inhibition of Staphylococcus aureus DNA gyrase. In kind it is protein-complex assay.
In a further experiment the target is DNA gyrase subunit B (Staphylococcus aureus, UniProt P0A0K8). In words: Inhibition of Staphylococcus aureus GyrB.
Chain of DNA gyrase subunit B (P0A0K8 whole entry): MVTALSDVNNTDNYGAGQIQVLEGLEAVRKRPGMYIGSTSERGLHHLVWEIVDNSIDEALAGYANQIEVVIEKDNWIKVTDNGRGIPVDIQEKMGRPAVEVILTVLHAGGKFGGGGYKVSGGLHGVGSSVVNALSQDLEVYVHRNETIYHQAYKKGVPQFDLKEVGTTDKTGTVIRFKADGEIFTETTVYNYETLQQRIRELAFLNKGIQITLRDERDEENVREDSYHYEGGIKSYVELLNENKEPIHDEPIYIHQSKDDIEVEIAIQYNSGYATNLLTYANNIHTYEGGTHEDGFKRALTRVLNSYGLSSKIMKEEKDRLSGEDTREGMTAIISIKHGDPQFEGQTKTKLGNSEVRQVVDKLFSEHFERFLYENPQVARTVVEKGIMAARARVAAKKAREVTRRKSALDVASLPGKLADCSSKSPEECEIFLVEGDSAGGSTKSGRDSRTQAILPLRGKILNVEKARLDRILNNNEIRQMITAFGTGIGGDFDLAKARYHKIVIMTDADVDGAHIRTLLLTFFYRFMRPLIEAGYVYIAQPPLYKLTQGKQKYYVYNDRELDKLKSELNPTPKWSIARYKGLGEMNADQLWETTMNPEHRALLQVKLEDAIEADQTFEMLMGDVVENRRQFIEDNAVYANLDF

pIC50: −log10 of the molar value.

Chain of DNA gyrase (P0A0K8 whole entry): as above
Chain of DNA gyrase (P20831 whole entry): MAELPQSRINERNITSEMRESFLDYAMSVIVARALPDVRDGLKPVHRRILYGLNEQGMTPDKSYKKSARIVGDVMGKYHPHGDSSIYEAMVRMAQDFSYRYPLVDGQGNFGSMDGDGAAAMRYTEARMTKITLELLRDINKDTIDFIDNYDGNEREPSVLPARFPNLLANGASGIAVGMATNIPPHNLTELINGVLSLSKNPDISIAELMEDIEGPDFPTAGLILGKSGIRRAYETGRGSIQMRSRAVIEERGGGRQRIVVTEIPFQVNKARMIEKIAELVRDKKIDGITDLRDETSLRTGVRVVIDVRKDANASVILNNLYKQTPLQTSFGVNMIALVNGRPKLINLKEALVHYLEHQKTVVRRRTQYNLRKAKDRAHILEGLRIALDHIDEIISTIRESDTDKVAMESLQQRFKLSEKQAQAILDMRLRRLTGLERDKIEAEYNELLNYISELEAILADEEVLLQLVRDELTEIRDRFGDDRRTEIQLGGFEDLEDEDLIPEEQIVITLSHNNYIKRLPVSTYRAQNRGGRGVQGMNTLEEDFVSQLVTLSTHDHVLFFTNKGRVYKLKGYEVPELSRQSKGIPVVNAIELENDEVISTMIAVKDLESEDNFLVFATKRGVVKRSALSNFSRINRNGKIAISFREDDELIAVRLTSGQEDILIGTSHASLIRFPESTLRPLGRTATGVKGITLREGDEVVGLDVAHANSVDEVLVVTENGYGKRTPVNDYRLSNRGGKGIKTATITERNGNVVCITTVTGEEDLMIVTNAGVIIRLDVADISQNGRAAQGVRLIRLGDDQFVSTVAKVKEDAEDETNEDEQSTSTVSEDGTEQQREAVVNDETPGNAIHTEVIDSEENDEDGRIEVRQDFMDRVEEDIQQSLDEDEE

With `Cc1occc1C(=O)NNC(=S)NC(=O)c1ccccc1`, the negative-log IC50 (pIC50) on DNA gyrase is 4.82.

With `C=C1CC[C@@H](O[C@H]2C[C@@](O)([C@H](C)NC(=O)c3[nH]c(C)c(Cl)c3Cl)[C@H](O)[C@@H](C)O2)[C@@H]2C=C[C@H](C)C(/C(O)=C3\C(=O)[C@H](C(C)C)N([C@H]4O[C@H](C)[C@H](OC(N)=O)[C@H](OC(C)=O)[C@@H]4OC)C3=O)[C@@H]12` (some centres not stated) [KIBDELOMYCIN], at DNA gyrase subunit B, the pIC50 was 8.05.
